Reference: the supplement of paper PMC11451515

System: SEM cells
Assay: cell viability relative to DMSO control; higher = less cytotoxic
Settings: 48 h
Method in brief: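 In 1536-well plates, 5 μl of leukemia cells were seeded per well: 500 cells/well for NOMO1 or SEM and 1000 cells/well for P12-Ichikawa. Each line had first been adapted for at least four passages in each medium. Library compounds in DMSO were pin-dosed at 11 threefold concentrations between 47 μM and 0.79 nM, and CellTiter-Glo One luminescence was read after 48 h at 37°C. Viability is a per-plate percentage relative to DMSO wells, with cell-free wells as background.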

[1] = HPLM + 10% dialyzed FBS, 0.000781 µM
[2] = HPLM + 10% dialyzed FBS, 0.00234 µM
[3] = HPLM + 10% dialyzed FBS, 0.00702 µM
[4] = HPLM + 10% dialyzed FBS, 0.0211 µM
[5] = HPLM + 10% dialyzed FBS, 0.0632 µM
[6] = HPLM + 10% dialyzed FBS, 0.19 µM
[7] = HPLM + 10% dialyzed FBS, 0.569 µM
[8] = HPLM + 10% dialyzed FBS, 1.71 µM
[9] = HPLM + 10% dialyzed FBS, 5.12 µM
[10] = HPLM + 10% dialyzed FBS, 15.4 µM
[11] = HPLM + 10% dialyzed FBS, 46.1 µM
[12] = RPMI 5 mM glucose + 10% FBS, 0.000781 µM
[13] = RPMI 5 mM glucose + 10% FBS, 0.00234 µM
[14] = RPMI 5 mM glucose + 10% FBS, 0.00702 µM
[15] = RPMI 5 mM glucose + 10% FBS, 0.0211 µM
[16] = RPMI 5 mM glucose + 10% FBS, 0.0632 µM
[17] = RPMI 5 mM glucose + 10% FBS, 0.19 µM
[18] = RPMI 5 mM glucose + 10% FBS, 0.569 µM
[19] = RPMI 5 mM glucose + 10% FBS, 1.71 µM
[20] = RPMI 5 mM glucose + 10% FBS, 5.12 µM
[21] = RPMI 5 mM glucose + 10% FBS, 15.4 µM
[22] = RPMI 5 mM glucose + 10% FBS, 46.1 µM
[23] = RPMI 5 mM glucose + 10% dialyzed FBS, 0.000781 µM
[24] = RPMI 5 mM glucose + 10% dialyzed FBS, 0.00234 µM
[25] = RPMI 5 mM glucose + 10% dialyzed FBS, 0.00702 µM
[26] = RPMI 5 mM glucose + 10% dialyzed FBS, 0.0211 µM
[27] = RPMI 5 mM glucose + 10% dialyzed FBS, 0.0632 µM
[28] = RPMI 5 mM glucose + 10% dialyzed FBS, 0.19 µM
[29] = RPMI 5 mM glucose + 10% dialyzed FBS, 0.569 µM
[30] = RPMI 5 mM glucose + 10% dialyzed FBS, 1.71 µM
[31] = RPMI 5 mM glucose + 10% dialyzed FBS, 5.12 µM
[32] = RPMI 5 mM glucose + 10% dialyzed FBS, 15.4 µM
[33] = RPMI 5 mM glucose + 10% dialyzed FBS, 46.1 µM

| Compound | cell viability [1] | cell viability [2] | cell viability [3] | cell viability [4] | cell viability [5] | cell viability [6] | cell viability [7] | cell viability [8] | cell viability [9] | cell viability [10] | cell viability [11] | cell viability [12] | cell viability [13] | cell viability [14] | cell viability [15] | cell viability [16] | cell viability [17] | cell viability [18] | cell viability [19] | cell viability [20] | cell viability [21] | cell viability [22] | cell viability [23] | cell viability [24] | cell viability [25] | cell viability [26] | cell viability [27] | cell viability [28] | cell viability [29] | cell viability [30] | cell viability [31] | cell viability [32] | cell viability [33] |
| --- | --- | --- | --- | --- | --- | --- | --- | --- | --- | --- | --- | --- | --- | --- | --- | --- | --- | --- | --- | --- | --- | --- | --- | --- | --- | --- | --- | --- | --- | --- | --- | --- | --- |
| CN(C)[C@H]\1[C@@H]2C[C@H]3C(=C(O)\[C@]2(O)C(=O)\C(=C1O)C(N)=O)/C(=O)C4=C(O)C=CC=C4[C@@]3(C)O | 92.6% | 88.5% | 81.5% | 101% | 92.5% | 90.8% | 92.7% | 86.6% | 85.2% | 90.1% | 78.3% | 113% | 118% | 114% | 102% | 83.7% | 104% | 108% | 96.8% | 93.2% | 109% | 93% | 118% | 108% | 128% | 129% | 89.8% | 108% | 126% | 116% | 59.4% | 116% | 100% |
| CC(C)NC[C@@H](C(=O)N1CCN(c2ncnc3c2[C@H](C)C[C@H]3O)CC1)c1ccc(Cl)cc1 | 113% | 103% | 115% | 89.3% | 87.6% | 63.6% | 36.9% | 23.1% | 12.1% | 9.57% | 1.69% | 103% | 112% | 127% | 101% | 74.3% | 61.3% | 36.9% | 32.5% | 13.8% | 5.24% | 1.73% | 117% | 90.3% | 93% | 79.4% | 93.2% | 48.5% | 34.9% | 20.5% | 9.56% | 4.26% | 2.07% |
| C[S+]([O-])(=O)C1=CC=C(C=C1)C/2=C(/C(=O)OC2)C3=CC=CC=C3 | 96% | 102% | 105% | 107% | 103% | 115% | 104% | 115% | 115% | 79.7% | 94.1% | 100% | 107% | 104% | 119% | 114% | 122% | 104% | 95.1% | 102% | 66.9% | 11.4% | 89.4% | 105% | 115% | 111% | 112% | 120% | 119% | 117% | 124% | 75% | 71.6% |
| C=C(C)[C@H]1Cc2c(ccc3c2O[C@@H]2COc4cc(OC)c(OC)cc4[C@@H]2C3=O)O1 | 96% | 85.9% | 103% | 85.1% | 75.5% | 92.8% | 104% | 94.5% | 57.1% | 22.6% | 14.2% | 79.7% | 94.7% | 89.6% | 108% | 60.1% | 89% | 87.8% | 80.2% | 40.3% | 15.8% | 10% | 101% | 106% | 125% | 106% | 77% | 109% | 91.4% | 86.7% | 40.4% | 23.1% | 13.3% |
| CC[C@H](C)[N]1C=C(C)C2=C1C=C(C=C2C(=O)NC\C3=C(C)\C=C(\C)NC3=O)C4=CC=C(N=C4)N5CCNCC5 | 106% | 104% | 112% | 117% | 114% | 106% | 112% | 117% | 113% | 113% | 99% | 83.5% | 105% | 108% | 102% | 113% | 108% | 99% | 109% | 96.5% | 95% | 101% | 101% | 120% | 115% | 108% | 110% | 103% | 107% | 100% | 107% | 116% | 104% |
| C=C[C@H]1CN2CC[C@H]1C[C@H]2[C@H](O)c1ccnc2ccc(OC)cc12 | 91.2% | 99.2% | 93.3% | 97% | 106% | 116% | 104% | 86% | 125% | 96.8% | 74.3% | 90.8% | 88.7% | 84% | 89.7% | 105% | 99.2% | 104% | 90.7% | 102% | 94.5% | 50.4% | 85.2% | 98.2% | 93.4% | 93.8% | 92% | 96.9% | 80% | 80.7% | 90.9% | 102% | 70.2% |
| C[N]1C=C(C2=C1C=CC=C2)\C3=C(\C(=O)NC3=O)C4=C5CC(CN)CC[N]5C6=C4C=CC=C6 (centres undefined) | 88.4% | 97.6% | 92.2% | 107% | 75.4% | 102% | 108% | 99.5% | 86.3% | 19.3% | 3.63% | 100% | 108% | 98.1% | 107% | 66.6% | 111% | 95% | 86% | 79.1% | 31.8% | 3.05% | 89.9% | 108% | 105% | 107% | 86.1% | 95.8% | 111% | 107% | 88.4% | 38.6% | 7.7% |
| CC/1=C(/N2[C@H](SC1)[C@H](NC(=O)[C@H](N)\C3=C\C\C=C/C3)C2=O)C(O)=O | 79.3% | 87.2% | 94% | 86.5% | 82.9% | 97.1% | 95.8% | 91.2% | 93.5% | 111% | 102% | 95.8% | 106% | 120% | 98.1% | 115% | 120% | 111% | 118% | 107% | 113% | 120% | 88.8% | 112% | 98% | 87.4% | 109% | 117% | 114% | 107% | 124% | 114% | 113% |
| CC(C)C(=O)Oc1ccc(CO)cc1[C@H](CCN(C(C)C)C(C)C)c1ccccc1 | 34.1% | 81.6% | 97.9% | 80.4% | 74.6% | 83.3% | 82.8% | 81% | 82.3% | 76.2% | 72.4% | 32.5% | 92.1% | 91.8% | 99.3% | 74.4% | 92.5% | 81.7% | 67.5% | 101% | 80.3% | 89.5% | 35.5% | 91.9% | 92.2% | 95.3% | 74.9% | 89.4% | 97.8% | 85.7% | 114% | 96.2% | 99.8% |
| Cc1cc2c(F)c(Oc3ncnn4cc(OC[C@@H](C)O)c(C)c34)ccc2[nH]1 | 107% | 108% | 101% | 102% | 106% | 104% | 88.7% | 83.2% | 70.5% | 38.6% | 26.6% | 117% | 117% | 141% | 124% | 110% | 99.4% | 100% | 85.3% | 77.6% | 39.7% | 26.2% | 87.5% | 92.6% | 103% | 102% | 92.9% | 89.3% | 92.4% | 79.3% | 70.3% | 26% | 13.7% |
| O=C(O)C1=NC(C(=O)O)CC(/C=C/N2c3cc(O)c(OC4OC(CO)C(O)C(O)C4O)cc3CC2C(=O)O)=C1 (centres undefined) | 109% | 106% | 110% | 109% | 101% | 113% | 112% | 104% | 103% | 95.9% | 103% | 102% | 107% | 101% | 113% | 101% | 111% | 115% | 102% | 102% | 101% | 97.2% | 112% | 113% | 102% | 118% | 108% | 112% | 105% | 96.4% | 111% | 105% | 96.9% |
| CCC[C@H]1C[C@H](C(=O)N[C@@H]([C@@H]2O[C@@H](SC)[C@@H](O)[C@@H](O)[C@H]2O)[C@H](C)Cl)N(C)C1 | 79% | 90.9% | 91.2% | 95.1% | 100% | 94.1% | 130% | 106% | 109% | 98.4% | 99.9% | 101% | 114% | 117% | 101% | 132% | 112% | 112% | 117% | 110% | 126% | 124% | 66.4% | 84.7% | 94% | 87.3% | 97.7% | 89.6% | 110% | 94.3% | 97.7% | 110% | 101% |
| COc1ccc(C(C)=O)c(O)c1 | 93.7% | 98.2% | 110% | 95.1% | 94.2% | 111% | 108% | 112% | 114% | 121% | 112% | 104% | 121% | 118% | 124% | 87.8% | 114% | 121% | 137% | 120% | 118% | 121% | 105% | 92.2% | 118% | 125% | 108% | 126% | 102% | 133% | 132% | 123% | 117% |
